Experiment: Binding affinity to beta cyclodextrin
With `O=C(O)CCC(=O)c1ccc(-c2ccccc2)cc1` [FENBUFEN] the “log Ks” value was 2.63.
In the case of `CO` [METHYL ALCOHOL], the “log Ks” value is reported as -0.49.
With `CC(C)Cc1cccc(O)c1` the “log Ks” value was 4.21.
For `CC(=O)Oc1cccc(Br)c1`, the “log Ks” value was 2.67.
With `CCOc1cccc(O)c1` [1-hydroxy-3-ethoxybenzene] the “log Ks” value was 2.35.
In the case of `OC1CCCC1` [CYCLOPENTANOL], the “log Ks” value is reported as 2.08.
In the case of `CCNc1ccccc1`, the “log Ks” value is reported as 2.34.
With `CCCCOC(=O)c1ccc(N)cc1` [BUTAMBEN] the “log Ks” value was 3.19.
In the case of `CC(=O)Oc1cccc(C#N)c1`, the “log Ks” value is reported as 1.49.
In the case of `Oc1ccccc1` [PHENOL], the “log Ks” value is reported as 1.98.
With `CCOc1ccc(O)cc1` [1-hydroxy-4-ethoxybenzene] the “log Ks” value was 2.33.
With `O=C(O)c1ccc(O)cc1` [PARABEN] the “log Ks” value was 2.2.
With `CC(=O)Oc1ccc(C)cc1` the “log Ks” value was 2.49.
In the case of `O=C(O)Cc1ccccc1` [PHENYLACETIC ACID], the “log Ks” value is reported as 2.1.
With `CC(=O)Nc1ccccc1` [ACETANILIDE] the “log Ks” value was 2.2.
In the case of `c1ccc2c(c1)Nc1ccccc1O2` [PHENOXAZINE], the “log Ks” value is reported as 2.69.
In the case of `CCCCc1ccc(OC(C)=O)cc1`, the “log Ks” value is reported as 3.62.
For `COc1cc(NS(=O)(=O)c2ccc(N)cc2)ncn1` [SULFAMONOMETHOXINE], the “log Ks” value was 2.48.
In the case of `OC1CCCCC1` [CYCLOHEXANOL], the “log Ks” value is reported as 2.67.
In the case of `OCCCCCO` [1,5-PENTANEDIOL], the “log Ks” value is reported as 1.22.
For `Cc1cc(NS(=O)(=O)c2ccc(N)cc2)nc(C)n1` [SULFISOMIDINE], the “log Ks” value was 2.1.
In the case of `Oc1cccc(I)c1`, the “log Ks” value is reported as 2.93.
For `CN1C(=O)NC(=O)C(C)(C2=CCCCC2)C1=O` (configuration not stated) [HEXOBARBITAL], the “log Ks” value was 3.08.
For `C[C@H](CCC(=O)O)[C@H]1CC[C@H]2[C@@H]3[C@H](O)C[C@@H]4C[C@H](O)CC[C@]4(C)[C@H]3C[C@H](O)[C@]12C` [CHOLIC ACID], the “log Ks” value was 3.5.
With `CC1(C)O[C@@H]2C[C@H]3[C@@H]4CCC5=CC(=O)C=C[C@]5(C)[C@@]4(F)[C@@H](O)C[C@]3(C)[C@]2(C(=O)CO)O1` [TRIAMCINOLONE ACETONIDE] the “log Ks” value was 3.51.
With `Cc1ccc(C)cc1` [P-XYLENE] the “log Ks” value was 2.38.
With `C[C@]12C=CC(=O)C=C1CC[C@@H]1[C@@H]2[C@@H](O)C[C@@]2(C)[C@H]1CC[C@]2(O)C(=O)CO` [PREDNISOLONE] the “log Ks” value was 3.56.
With `C#Cc1ccccc1` the “log Ks” value was 2.36.
For `c1ccc2c(c1)Sc1ccccc1S2`, the “log Ks” value was 3.57.
For `O=C1CN=C(c2ccccc2)c2cc([N+](=O)[O-])ccc2N1` [NITRAZEPAM], the “log Ks” value was 1.97.
For `c1ccc2c(c1)Nc1ccccc1S2` [PHENOTHIAZINE], the “log Ks” value was 2.73.
In the case of `CCOc1ccc(OC(C)=O)cc1`, the “log Ks” value is reported as 2.54.
With `CCCCCc1ccc(O)cc1` the “log Ks” value was 4.19.
For `CCC1(C2=CCCCC2)C(=O)NC(=O)NC1=O` [CYCLOBARBITAL], the “log Ks” value was 2.71.
For `CCC(O)CC` [3-PENTANOL], the “log Ks” value was 1.35.
With `O=Cc1ccccc1` [BENZALDEHYDE] the “log Ks” value was 1.78.
With `CCCC(C)(C)O` the “log Ks” value was 1.99.
For `CC(=O)S[C@@H]1CC2=CC(=O)CC[C@]2(C)[C@H]2CC[C@@]3(C)[C@@H](CC[C@@]34CCC(=O)O4)[C@H]12` [SPIRONOLACTONE], the “log Ks” value was 4.44.
For `CC(=O)Oc1cccc(F)c1`, the “log Ks” value was 1.91.
For `CCCc1cccc(OC(C)=O)c1`, the “log Ks” value was 3.28.
With `c1ccc2c(c1)cnc1ccccc12` [PHENANTHRIDINE] the “log Ks” value was 2.57.
In the case of `CC(C)=O` [ACETONE], the “log Ks” value is reported as 0.42.
For `Oc1cccc(Br)c1`, the “log Ks” value was 2.51.
For `COc1ccc(OC(C)=O)cc1`, the “log Ks” value was 2.45.
In the case of `c1ccc2nc3ccccc3cc2c1` [ACRIDINE], the “log Ks” value is reported as 2.33.
For `Cc1ccc(Cl)c(Nc2ccccc2C(=O)O)c1Cl` [MECLOFENAMIC ACID], the “log Ks” value was 2.67.
For `Cc1cccc(/C=C/C(=O)O)c1`, the “log Ks” value was 2.93.
In the case of `O=C(O)c1ccccc1Nc1cccc(C(F)(F)F)c1` [FLUFENAMIC ACID], the “log Ks” value is reported as 3.1.
For `CC(C(=O)O)c1ccc(-c2ccccc2)c(F)c1` (configuration not stated) [FLURBIPROFEN], the “log Ks” value was 3.69.
With `CCCc1ccc(O)cc1` the “log Ks” value was 3.55.
For `c1ccc2c(c1)oc1ccccc12` [DIBENZOFURAN], the “log Ks” value was 2.97.
In the case of `COc1cc(NS(=O)(=O)c2ccc(N)cc2)nc(C)n1` [SULFAMETOMIDINE], the “log Ks” value is reported as 2.33.
For `OCc1ccc(O)cc1` [PARAHYDROXYBENZYL ALCOHOL], the “log Ks” value was 2.16.
With `CN1CCN=C(c2ccccc2)c2cc(Cl)ccc21` [MEDAZEPAM] the “log Ks” value was 2.4.
With `CCCC(=O)O[C@]1(C(=O)CO)CC[C@H]2[C@@H]3CCC4=CC(=O)CC[C@]4(C)[C@H]3[C@@H](O)C[C@@]21C` [HYDROCORTISONE BUTYRATE] the “log Ks” value was 3.23.
In the case of `OCCCCO` [1,4-BUTANEDIOL], the “log Ks” value is reported as 0.64.
For `Ic1ccccc1` [IODOBENZENE], the “log Ks” value was 2.93.
With `O=C(O)CC12CC3CC(CC(C3)C1)C2` the “log Ks” value was 4.32.
In the case of `Brc1ccc(Br)cc1`, the “log Ks” value is reported as 2.97.
In the case of `ClC(Cl)Cl` [CHLOROFORM], the “log Ks” value is reported as 1.43.
For `CCC(C)c1ccc(O)cc1` (configuration not stated), the “log Ks” value was 4.18.
For `O=C(O)/C=C/c1cccc(O)c1`, the “log Ks” value was 2.56.
In the case of `CCC1(CC)C(=O)NC(=O)NC1=O` [BARBITAL], the “log Ks” value is reported as 1.78.
For `CN1C(=O)CN=C(c2ccccc2)c2cc([N+](=O)[O-])ccc21` [NIMETAZEPAM], the “log Ks” value was 1.73.
For `OC1CCCCCC1` [CYCLOHEPTANOL], the “log Ks” value was 3.23.
In the case of `c1ccc2c(c1)Cc1ccccc1O2` [XANTHENE], the “log Ks” value is reported as 2.71.
With `CC(C)c1cccc(O)c1` the “log Ks” value was 3.44.
In the case of `CCc1ccc(OC(C)=O)cc1`, the “log Ks” value is reported as 2.83.
With `Oc1ccc(F)cc1` the “log Ks” value was 1.73.
With `CN1C(=O)CN=C(c2ccccc2F)c2cc(Cl)ccc21` [FLUDIAZEPAM] the “log Ks” value was 2.33.
With `C1CCOC1` [TETRAHYDROFURAN] the “log Ks” value was 1.47.
With `C[C@]12C=CC(=O)C=C1CC[C@H]1[C@@H]3C[C@@H](O)[C@](O)(C(=O)CO)[C@@]3(C)C[C@H](O)[C@@]12F` [TRIAMCINOLONE] the “log Ks” value was 3.37.
In the case of `CCCCc1cccc(OC(C)=O)c1`, the “log Ks” value is reported as 3.66.
For `CCCCc1cccc(O)c1`, the “log Ks” value was 3.76.
For `Cc1cccc(Nc2ccccc2C(=O)O)c1C` [MEFENAMIC ACID], the “log Ks” value was 2.49.
In the case of `CNc1ccccc1`, the “log Ks” value is reported as 2.12.
In the case of `CCC(C)O` (configuration not stated) [BUTANOL], the “log Ks” value is reported as 1.19.
With `CCC1(c2ccccc2)C(=O)NC(=O)NC1=O` [PHENOBARBITAL] the “log Ks” value was 3.22.
With `CCc1ccc(O)cc1` the “log Ks” value was 2.69.
For `CC(C)C(C)O` (configuration not stated), the “log Ks” value was 1.92.
In the case of `CCCOC/C(=N\c1ccc(Cl)cc1C(F)(F)F)n1ccnc1` [TRIFLUMIZOLE], the “log Ks” value is reported as 2.66.
In the case of `OC1CCC1` [CYCLOBUTANOL], the “log Ks” value is reported as 1.18.
With `CC1(C)O[C@@H]2C[C@H]3[C@@H]4C[C@H](F)C5=CC(=O)C=C[C@]5(C)[C@@]4(F)[C@@H](O)C[C@]3(C)[C@]2(C(=O)CO)O1` [FLUOCINOLONE ACETONIDE] the “log Ks” value was 3.48.
With `CCc1ccccc1` [ETHYLBENZENE] the “log Ks” value was 2.59.
With `CCOC(=O)c1ccc(N)cc1` [BENZOCAINE] the “log Ks” value was 2.69.
With `CC(=O)OCC(=O)[C@@]1(O)CC[C@H]2[C@@H]3CCC4=CC(=O)CC[C@]4(C)[C@H]3C(=O)C[C@@]21C` [CORTISONE ACETATE] the “log Ks” value was 3.62.
For `CC(=O)Oc1cccc(Cl)c1`, the “log Ks” value was 2.44.
For `COCCO` [2-METHOXYETHANOL], the “log Ks” value was 0.22.
For `Oc1cc(Cl)cc(Cl)c1`, the “log Ks” value was 2.07.
With `CC(C(=O)O)c1cccc(C(=O)c2ccccc2)c1` (configuration not stated) [KETOPROFEN] the “log Ks” value was 2.85.
For `Oc1cccc(F)c1`, the “log Ks” value was 1.7.
For `Cc1noc(NS(=O)(=O)c2ccc(N)cc2)c1C` [SULFISOXAZOLE], the “log Ks” value was 2.32.
For `CCc1cccc(OC(C)=O)c1`, the “log Ks” value was 2.68.
With `CCCc1ccc(OC(C)=O)cc1` the “log Ks” value was 3.15.
With `Oc1ccc(O)cc1` [HYDROQUINONE] the “log Ks” value was 2.05.
With `Nc1ccc(S(=O)(=O)Nc2ncccn2)cc1` [SULFADIAZINE] the “log Ks” value was 2.52.
With `C[C@]12C[C@H](O)[C@H]3[C@@H](CCC4=CC(=O)CC[C@@]43C)[C@@H]1CC[C@@H]2C(=O)CO` [CORTICOSTERONE] the “log Ks” value was 3.85.
For `CCCCCO` [1-PENTANOL], the “log Ks” value was 1.8.
In the case of `NS(=O)(=O)c1cc2c(cc1C(F)(F)F)NC(Cc1ccccc1)NS2(=O)=O` (configuration not stated) [BENDROFLUMETHIAZIDE], the “log Ks” value is reported as 1.9.
For `Fc1ccccc1` [FLUOROBENZENE], the “log Ks” value was 1.96.
For `Nc1ccccc1` [ANILINE], the “log Ks” value was 1.6.
In the case of `O=C(O)c1ccc([N+](=O)[O-])cc1` [4-NITROBENZOIC ACID], the “log Ks” value is reported as 2.34.
With `CCc1cccc(O)c1` the “log Ks” value was 2.6.
For `OCCCCCCO` [1,6-HEXANEDIOL], the “log Ks” value was 1.69.
For `Nc1ccc(-c2ccc(N)cc2)cc1` [BENZIDINE], the “log Ks” value was 3.35.
In the case of `C[C@]12CCC(=O)C=C1CC[C@@H]1[C@@H]2[C@@H](O)C[C@@]2(C)[C@H]1CC[C@]2(O)C(=O)CO` [HYDROCORTISONE], the “log Ks” value is reported as 3.6.
With `Nc1ccc(S(=O)(=O)Nc2ccnn2-c2ccccc2)cc1` [SULFAPHENAZOLE] the “log Ks” value was 2.35.
For `CC(=O)Oc1ccc(F)cc1`, the “log Ks” value was 2.11.
In the case of `Oc1cc(Br)cc(Br)c1`, the “log Ks” value is reported as 2.56.
For `CCC(C)CO` (configuration not stated), the “log Ks” value was 2.08.
With `ClC(Cl)(Cl)Cl` [CARBON TETRACHLORIDE] the “log Ks” value was 2.2.
With `CC(C)CO` [ISOBUTANOL] the “log Ks” value was 1.62.
For `OCCc1ccccc1` [PHENYLETHYL ALCOHOL], the “log Ks” value was 2.15.
For `CC(=O)c1ccccc1` [ACETOPHENONE], the “log Ks” value was 2.27.
With `Oc1cccc(Cl)c1` the “log Ks” value was 2.28.
For `CCC1(CCC(C)C)C(=O)NC(=O)NC1=O` [AMOBARBITAL], the “log Ks” value was 3.07.
With `NC(=O)CCC/N=C(\c1ccc(Cl)cc1)c1cc(F)ccc1O` [PROGABIDE] the “log Ks” value was 2.53.
In the case of `ClCc1ccccc1` [(CHLOROMETHYL)BENZENE], the “log Ks” value is reported as 2.45.
With `CC(=O)Oc1ccc(C(C)(C)C)cc1` the “log Ks” value was 3.85.
With `CC(=O)Oc1cccc(C(C)C)c1` the “log Ks” value was 3.36.
With `c1ccc2nc3ccccc3nc2c1` [PHENAZINE] the “log Ks” value was 2.41.
In the case of `CCCCNC(=O)NS(=O)(=O)c1ccc(N)cc1` [CARBUTAMIDE], the “log Ks” value is reported as 2.29.
In the case of `CC(=O)c1ccc(O)cc1` [4-HYDROXYACETOPHENONE], the “log Ks” value is reported as 2.18.
In the case of `COc1ccccc1` [ANISOLE], the “log Ks” value is reported as 2.32.
With `CCCC(C)C1(CC)C(=O)NC(=S)NC1=O` (configuration not stated) [THIOPENTAL] the “log Ks” value was 3.28.
With `C[C@]12CCC(=O)C=C1CC[C@@H]1[C@@H]2C(=O)C[C@@]2(C)[C@H]1CC[C@]2(O)C(=O)CO` [CORTISONE] the “log Ks” value was 3.35.
For `c1ccc2sccc2c1` [BENZOTHIOPHENE], the “log Ks” value was 3.23.
